The results in this text go back to patent US8853193B2, “Thienopyrimidines containing a substituted alkyl group for pharmaceutical compositions” (Boehringer Ingelheim International GmbH, priority 2010, dated 2014).

In this experiment the target is human Mnk2a (Homo sapiens (Human), UniProt Q9HBH9). Nature of the experiment: Mnk2a in vitro kinase assay (indirect competitive fluorescence polarization). The format is biochemical. The conditions noted are these: pre-activated GST-Mnk2a 2.5 nM, 20 μM ATP, 30 μM substrate peptide; read-out: MNK2 IC50. Summed up: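 GST-tagged human Mnk2a expressed in E. coli and glutathione-purified, then activated at 2.5 μM with 150 nM pre-activated NHis-ERK2 and 50 μM ATP in HEPES/KOH pH 7.4, MgCl2, DTT, Brij 78 for 45 min at 30 °C. Phospho-peptide product read by indirect competitive fluorescence polarization against fluorophore-labelled phospho-peptide bound to phospho-specific antibody.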
Chain of human Mnk2a (Q9HBH9 whole entry): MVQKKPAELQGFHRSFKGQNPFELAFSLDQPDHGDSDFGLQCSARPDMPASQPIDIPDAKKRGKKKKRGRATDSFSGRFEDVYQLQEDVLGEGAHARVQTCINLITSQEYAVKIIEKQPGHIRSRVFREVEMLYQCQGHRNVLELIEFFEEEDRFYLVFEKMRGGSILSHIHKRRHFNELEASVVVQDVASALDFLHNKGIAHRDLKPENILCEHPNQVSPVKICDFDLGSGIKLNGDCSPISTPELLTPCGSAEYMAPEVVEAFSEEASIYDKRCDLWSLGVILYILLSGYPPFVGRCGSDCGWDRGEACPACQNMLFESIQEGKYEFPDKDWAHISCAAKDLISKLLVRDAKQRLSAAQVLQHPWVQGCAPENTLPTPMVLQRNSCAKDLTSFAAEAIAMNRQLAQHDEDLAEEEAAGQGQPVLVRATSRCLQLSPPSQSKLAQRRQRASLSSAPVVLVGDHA
The IC50 is the concentration needed to halve the response being measured. With `Cc1c(C(=O)NCCCN(C)C)sc2ncnc(Nc3cccnc3OC(C)C)c12` [Compound 36, N-(3-(Dimethylamino)propyl)-4-(2-isopropoxypyridin-3-ylamino)-5-methyl-thieno[2,3-d]pyrimidine-6-carboxamide], the half-maximal inhibitory concentration (IC50) is 29 nM. Turning to `Cc1c(C(=O)NCCCN2CCCC2)sc2ncnc(Nc3cccnc3OC(C)C)c12` [Compound 36-1, 4-(2-Isopropoxypyridin-3-ylamino)-5-methyl-N-(3-(pyrrolidin-1-yl)propyl)thieno[2,3-d]pyrimidine-6-carboxamide], the IC50 amounted to 35 nM. Turning to `Cc1c(C(=O)NCCCCO)sc2ncnc(Nc3cccnc3OC(C)C)c12` [Compound 36-2, N-(4-Hydroxybutyl)-4-(2-isopropoxypyridin-3-ylamino)-5-methylthieno[2,3-d]pyrimidine-6-carboxamide], the 50% inhibitory concentration (IC50) was determined as 42 nM.

`CCNC(=O)c1sc2ncnc(Nc3cccnc3OC(C)C)c2c1C` [Compound 36-3]: the IC50 came out at 26 nM.

For `Cc1c(C(=O)NCCCN2CCOCC2)sc2ncnc(Nc3cccnc3OC(C)C)c12` [Compound 36-4], the half-maximal inhibitory concentration (IC50) amounted to 44 nM.

On to `Cc1c(C(=O)NCC2CNCCO2)sc2ncnc(Nc3cccnc3OC(C)C)c12` (centres unmarked) [Compound 36-5, 4-(2-Isopropoxypyridin-3-ylamino)-5-methyl-N-(morpholin-2ylmethyl) thieno[2,3-d]pyrimidine-6-carboxamide], for which the IC50 came to 25 nM. The figure for `Cc1c(C(=O)N[C@H]2C[C@@H]2N)sc2ncnc(Nc3cccnc3OC(C)C)c12` [Compound 36-6, N-((1S,2S)-2-Aminocyclopropyl)-4-(2-isopropoxypyridin-3-ylamino)-5-methylthieno[2,3-d]pyrimidine-6-carboxamide] is 55 nM. Consider `CNC(=O)CNC(=O)c1sc2ncnc(Nc3cccnc3OC(C)C)c2c1C` [Compound 36-7, 4-(2-Isopropoxypyridin-3ylamino)-5-methyl-N-(2-(methylamino)-2-oxoethyl)thieno[2,3-d]pyrimidine-6-carboxamide], for which the IC50 worked out at 27 nM. The value for `Cc1c(C(=O)NCc2cnco2)sc2ncnc(Nc3cccnc3OC(C)C)c12` [Compound 36-8, 4-(2-Isopropoxypyridin-3ylamino)-5-methyl-N-(oxazol-5-ylmethyl)thieno[2,3-d]pyrimidine-6-carboxamide] was 19 nM; that for `Cc1c(C(=O)NCCN2CCCCC2)sc2ncnc(Nc3cccnc3OC(C)C)c12` [Compound 36-9, 4-(2-Isopropoxypyridin-3ylamino)-5-methyl-N-(2-(piperidin-1-yl)ethyl)thieno[2,3-d]pyrimidine-6-carboxamide] was 63 nM. The figure for `Cc1c(C(=O)NC2CCN(C)CC2)sc2ncnc(Nc3cccnc3OC(C)C)c12` [Compound 36-10, 4-(2-Isopropoxypyridin-3ylamino)-5-methyl-N-(1-methylpiperidin-4-yl)thieno[2,3-d]pyrimidine-6-carboxamide] is 32 nM. The figure for `Cc1c(C(=O)NCCCO)sc2ncnc(Nc3cccnc3OC(C)C)c12` [Compound 36-11, N-(3-Hydroxypropyl)-4-(2-isopropoxypyridin-3ylamino)-5-methylthieno[2,3-d]pyrimidine-6-carboxamide] is 45 nM.

Take `Cc1c(C(=O)NCCO)sc2ncnc(Nc3cccnc3OC(C)C)c12` [Compound 36-12, N-(2-Hydroxyethyl)-4-(2-isopropoxypyridin-3ylamino)-5-methylthieno[2,3-d]pyrimidine-6-carboxamide]: the concentration for half-maximal inhibition (IC50) is 31 nM. The value for `Cc1c(C(=O)NCC(C)O)sc2ncnc(Nc3cccnc3OC(C)C)c12` (centres unmarked) [Compound 36-13, N-(2-Hydroxypropyl)-4-(2-isopropoxypyridin-3ylamino)-5-methylthieno[2,3-d]pyrimidine-6-carboxamide] was 54 nM; that for `Cc1c(C(=O)NCC2COCCN2)sc2ncnc(Nc3cccnc3OC(C)C)c12` (centres unmarked) [Compound 36-14, 4-(2-Isopropoxypyridin-3ylamino)-5-methyl-N-(morpholin-3-ylmethyl) thieno[2,3-d]pyrimidine-6-carboxamide] was 64 nM. The value for `Cc1c(C(=O)NCc2cn(C)cn2)sc2ncnc(Nc3cccnc3OC(C)C)c12` [Compound 36-15, 4-(2-Isopropoxypyridin-3ylamino)-5-methyl-N-((1-methyl-1H-imidazol-4-yl)methyl) thieno[2,3-d]pyrimidine-6-carboxamide] was 24 nM. In the case of `Cc1c(C(=O)NCC#CCN(C)C)sc2ncnc(Nc3cccnc3OC(C)C)c12` [Compound 36-16], the half-maximal inhibitory concentration (IC50) was determined as 22 nM. As to `CCNC(=O)C(C)Oc1cc(F)ccc1Nc1ncnc2sc(C(=O)O)c(C)c12` (centres unmarked) [Compound 39, 4-[2-(1-Ethylcarbamoyl-ethoxy)-4-fluoro-phenylamino]-5-methyl-thieno[2,3-d]pyrimidine-6-carboxylic acid], the IC50 was found to be 19 nM. The value for `CCNC(=O)C(C)Oc1cc(F)ccc1Nc1ncnc2sc(C(=O)NCCCN(C)C)c(C)c12` (centres unmarked) [Compound 40, 4-[2-(1-Ethylcarbamoyl-ethoxy)-4-fluoro-phenylamino]-5-methyl-thieno[2,3-d]pyrimidine-6-carboxylic acid (3-dimethylamino-propyl)-amide] was 20 nM. On to `CCNC(=O)C(C)Oc1cc(F)ccc1Nc1ncnc2sc(C(=O)NCCO)c(C)c12` (centres unmarked) [Compound 41], for which the 50% inhibitory concentration (IC50) stood at 31 nM.

`Cc1c(C(=O)NCCO)sc2ncnc(Nc3cccnc3OC(C)CCN)c12` (centres unmarked) [Compound 42, 4-[2-(3-Amino-1-methyl-propoxy)-3pyridin-3-ylamino]-5-methyl-thieno[2,3-d]pyrimidine-6-carboxylic acid (2-hydroxy-ethyl)-amide]: the IC50 turned out to be 70 nM. The figure for `Cc1c(C(=O)NCCO)sc2ncnc(Nc3cccnc3OC(C)CCNS(C)(=O)=O)c12` (centres unmarked) [Compound 43, 4-[2-(3-Methanesulfonylamino-1-methyl-propoxy)-pyridin-3-ylamino]-5-methyl-thieno[2,3-d]pyrimidine-6-carboxylic acid (2-hydroxy-ethyl)-amide] is 62 nM; for `Cc1c(C(=O)O)sc2ncnc(Nc3cccnc3OC(C)CCNS(C)(=O)=O)c12` (centres unmarked) [Compound 44, 4-[2-(3-Methanesulfonylamino-1-methyl-propoxy)-pyridin-3-ylamino]-5-methyl-thieno[2,3-d]pyrimidine-6-carboxylic acid] it is 24 nM. The figure for `Cc1c(C(N)=O)sc2ncnc(Nc3cccnc3OC(C)CCNS(C)(=O)=O)c12` (centres unmarked) [Compound 45, 4-[2-(3-Methanesulfonylamino-1-methyl-propoxy)-pyridin-3-ylamino]-5-methyl-thieno[2,3-d]pyrimidine-6-carboxylic acid amide] is 20 nM. The value for `Cc1c(C(=O)NCCCN(C)C)sc2ncnc(Nc3cccnc3OC(C)CCNS(C)(=O)=O)c12` (centres unmarked) [Compound 46, 4-[2-(3-Methanesulfonylamino-1-methyl-propoxy)-pyridin-3-ylamino]-5-methyl-thieno[2,3-d]pyrimidine-6-carboxylic acid (3-dimethylamino-propyl)-amide] was 84 nM. With `COC(=O)c1sc2ncnc(Nc3ccc(C#N)cc3OC(CF)CF)c2c1C` [Compound 47, Methyl 4-[4-cyano-2-(2-fluoro-1-fluoromethyl-ethoxy)phenylamino]-5-methyl-thieno[2,3-d]pyrimidine-6-carboxylate], the 50% inhibitory concentration (IC50) amounted to 125 nM.
